The values below come from US20020022647A1, “2-(4-bromo or 4-iodo phenylamino) benzoic acid derivatives” (priority 1997, published 2002).

The target in the assay is GST-MEK (p45MEK) and GST-MAPK (p44MAP kinase) (Homo sapiens, UniProt Q02750). Put plainly: Cascade assay for inhibitors of the MAP kinase pathway (In Vitro). The settings on record: incorporation of 32P into myelin basic protein. The format is biochemical. As for the experimental part: Cascade Assay for Inhibitors of the MAP Kinase Pathway
Sequence of GST-MEK (p45MEK) and GST-MAPK (p44MAP kinase) (Q02750 whole entry, the tested form may be a part): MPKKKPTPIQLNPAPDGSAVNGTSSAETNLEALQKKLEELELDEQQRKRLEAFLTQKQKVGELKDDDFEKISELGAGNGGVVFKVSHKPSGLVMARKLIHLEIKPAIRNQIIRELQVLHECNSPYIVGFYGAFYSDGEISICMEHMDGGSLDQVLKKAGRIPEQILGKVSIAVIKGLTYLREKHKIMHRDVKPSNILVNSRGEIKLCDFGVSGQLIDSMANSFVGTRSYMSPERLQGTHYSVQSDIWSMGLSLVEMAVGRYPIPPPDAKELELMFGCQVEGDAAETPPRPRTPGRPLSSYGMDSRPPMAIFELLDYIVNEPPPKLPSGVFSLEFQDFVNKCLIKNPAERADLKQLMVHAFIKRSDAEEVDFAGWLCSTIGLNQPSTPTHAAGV
Incorporation of ^32P into myelin basic protein (MBP) was assayed in the presence of a glutathione S-transferase fusion protein containing p44MAP kinase (GST-MAPK) and a glutathione S-transferase fusion protein containing p45MEK (GST-MEK). The assay solution contained 20 mM HEPES, pH 7.4, 10 mM MgCl2, 1 mM MnCl2, 1 mM EGTA, 50 μM [γ-^32P]ATP, 10 μg GST-MEK0.5 μg GST-MAPK and 40 μg MBP in a final volume of 100 μL. Reactions were stopped after 20 minutes by addition of trichloroacetic acid and filtered through a GF/C filter mat. ^32P retained on the filter mat was determined using a 1205 Betaplate. Compounds were assessed at 10 μM for ability to inhibit incorporation of ^32P.
To ascertain whether compounds were inhibiting GST-MEK or GST MAPK, two additional protocols were employed. In the first protocol, compounds were added to tubes containing GST-MEK, followed by addition of GST-MAPK, MBP and [γ-^32P]ATP. In the second protocol, compounds were added to tubes containing both GST-MEK and GST-MAPK, followed by MBP and [γ-^32P]ATP.
On to `Cc1cc(I)ccc1Nc1cc(F)ccc1C(=O)O` [Example 1, 4-Fluoro-2-(4-iodo-2-methylphenylamino)benzoic acid], for which the 50% inhibitory concentration (IC50) (commonly the concentration at which inhibition is half-maximal) amounted to 19 nM. As to `Cc1cc(I)ccc1Nc1c(C(=O)O)cc(F)c(F)c1F` [Example 2, 3,4,5-Trifluoro-2-(4-iodo-2-methyl-phenylamino)-benzoic acid], the IC50 was determined as 14 nM.

For the compound `Cc1cc(I)ccc1Nc1c(C(=O)O)ccc(F)c1F` [Example 3, 3,4-Difluoro-2-(4-iodo-2-methyl-phenylamino)-benzoic acid], the IC50 worked out at 11.1 nM.

`Cc1cc(I)ccc1Nc1c(C(=O)O)cc(Br)c(F)c1F` [Example 4, 5-Bromo-3,4-difluoro-2-(4-iodo-2-methyl-phenylamino)-benzoic acid]: the IC50 worked out at 5 nM. For `O=C(O)c1cc(Cl)ccc1Nc1ccc(I)cc1Cl` [Example 5, 5-Chloro-2-(2-chloro-4-iodo-phenylamino)--benzoic acid], the IC50 came to 66 nM. On to `Cc1cc(I)ccc1Nc1ccc(Cl)cc1C(=O)O` [Example 6, 5-Chloro-2-(4-iodo-2-methyl-phenylamino)-benzoic acid], for which the half-maximal inhibitory concentration (IC50) is 71 nM.

`Cc1cc(I)ccc1Nc1ccc(Cl)cc1C(=O)[O-].[Na+]` [Example 7, Sodium 5-Chloro-2-(4-iodo-2-methyl-phenylamino)-benzoate] yielded an IC50 of 72 nM.

`Cc1cc(I)ccc1Nc1ccc(Br)cc1C(=O)O` [Example 8, 5-Bromo-2-(4-iodo-2-methyl-phenylamino)-benzoic acid] had an IC50 of 86 nM. In turn, `O=C(O)c1cc([N+](=O)[O-])ccc1Nc1ccc(I)cc1Cl` [Example 9, 2-(2-Chloro-4-iodo-phenylamino)-5-nitro-benzoic acid] yielded an IC50 of 97 nM. Next, `Cc1c(Nc2cc(F)ccc2C(=O)O)ccc(I)c1F` [Example 10, 4-Fluoro-2-(3-fluoro-4-iodo-2-methyl-phenylamino)-benzoic acid]: 101 nM; `Cc1cc(I)ccc1Nc1ccc([N+](=O)[O-])cc1C(=O)O` [Example 11, 2-(4-Iodo-2-methyl-phenylamino)-5-nitro-benzoic acid]: 128 nM; `O=C(O)c1cc([N+](=O)[O-])ccc1Nc1ccc(I)cc1F` [Example 12, 2-(2-Fluoro-4-iodo-phenylamino)-5-nitro-benzoic acid]: 135 nM. With `Cc1cc(Br)ccc1Nc1cc(F)ccc1C(=O)O` [Example 13, 2-(4-Bromo-2-methyl-phenylamino)-4-fluoro-benzoic acid], the IC50 was 178 nM.

Regarding `O=C(O)c1cc([N+](=O)[O-])ccc1Nc1ccc(I)cc1Br` [Example 14, 2-(2-Bromo-4-iodo-phenylamino)-5-nitro-benzoic acid], the 50% inhibitory concentration (IC50) was determined as 179 nM.

Compound `Cc1cc(Br)ccc1Nc1c(C(=O)O)ccc(F)c1F` [Example 15, 2-(4-Bromo-2-methyl-phenylamino)-3,4-difluoro-benzoic acid] returned an IC50 of 194 nM.

For `Cc1cc(I)ccc1Nc1c(F)cccc1C(=O)O` [Example 16, 3-Fluoro-2-(4-iodo-2-methyl-phenylamino)-benzoic acid], the half-maximal inhibitory concentration (IC50) is 323 nM. Compound `COc1cc(I)ccc1Nc1c(C(=O)O)ccc(F)c1F` [Example 17, 3,4-Difluoro-2-(4-iodo-2-methoxy-phenylamino)-benzoic acid] had a half-maximal inhibitory concentration (IC50) of 434 nM. The compound `Cc1cc(I)ccc1Nc1cc(Cl)ccc1C(=O)O` [Example 18, 4-Chloro-2-(4-iodo-2-methyl-phenylamino)-benzoic acid] showed a half-inhibitory concentration (IC50) of 446 nM. Next, `Cc1cc(I)ccc1Nc1ccccc1C(=O)O` [Example 19, 2-(4-Iodo-2-methyl-phenylamino)-benzoic acid]: 524 nM; `Cc1cc(I)ccc1Nc1ccc(F)cc1C(=O)O` [Example 20, 5-Fluoro-2-(4-iodo-2-methyl-phenylamino)-benzoic acid]: 557 nM. `Cc1cc(I)ccc1Nc1ccc(I)cc1C(=O)O` [Example 21, 5-Iodo-2-(4-iodo-2-methyl-phenylamino)-benzoic acid] showed an IC50 of 569 nM. Next, `Cc1cc(I)ccc1Nc1c(F)cc(C(=O)O)c(F)c1F` [Example 22, 2,3,5-Trifluoro-4-(4-iodo-2-methyl-phenylamino)-benzoic acid]: 1581 nM; `Cc1c(Nc2cc(F)ccc2C(=O)O)ccc(I)c1Cl` [Example 23, 4-Fluoro-2-(3-chloro-4-iodo-2-methyl-phenylamino) benzoic acid]: 1588 nM; `COc1ccc(Nc2ccc(I)cc2)c(C(=O)O)c1` [Example 24, 2-(4-Iodo-phenylamino)-5-methoxy-benzoic acid]: 1944 nM.

Compound `O=C(O)c1cccc(Cl)c1Nc1ccc(I)cc1Cl` [Example 25, 3-Chloro-2-(2-chloro-4-iodo-phenylamino)-benzoic acid] returned an IC50 of 2363 nM. The compound `Cc1cc(I)ccc1Nc1cccc(F)c1C(=O)O` [Example 26, 2-Fluoro-6-(4-iodo-2-methyl-phenylamino)-benzoic acid] returned an IC50 of 2609 nM. Turning to `Cc1ccc(Nc2ccc(I)cc2C)c(C(=O)O)c1` [Example 28, 5-Methyl-2-(4-iodo-2-methyl-phenylamino)-benzoic acid], the IC50 is 3670 nM. Turning to `Cc1cc(I)ccc1Nc1cccc(Cl)c1C(=O)O` [Example 29, 2-Chloro-6-(4-iodo-2-methyl-phenylamino)-benzoic acid], the concentration for half-maximal inhibition (IC50) stood at 5331 nM.

Turning to `COc1ccc(NC(=O)c2ccc(OC)c([N+](=O)[O-])c2)cc1` [Example 32, 4-Methoxy-N-(4-methoxy-phenyl)-3-nitro-benzamide], the IC50 amounted to 28 nM. As to `Cc1cc(I)ccc1Nc1cc(F)ccc1C(N)=O` [Example 33, 4-Fluoro-2-(4-iodo-2-methyl-phenylamino)-benzaniide], the IC50 amounted to 52 nM.

On to `CNC(=O)c1ccc(F)cc1Nc1ccc(I)cc1C` [Example 34], for which the IC50 came to 98 nM. In turn, `CCNC(=O)c1ccc(F)cc1Nc1ccc(I)cc1C` [Example 35, N-Ethyl-4-fluoro-2-(4-iodo-2-methyl-phenylamino)-benzamide] yielded a 50% inhibitory concentration (IC50) of 121 nM.

In turn, `Cc1cc(I)ccc1Nc1cc(F)ccc1C(=O)N(C)C` [Example 36, 4-Fluoro-2-(4-iodo-2-methyl-phenylamino)-N,N-dimethyl-benzamide] had an IC50 of 129 nM. The compound `Cc1cc(I)ccc1Nc1cc(F)ccc1C(=O)Nc1nnn[nH]1` [Example 37, 4-Fluoro-2-(4-iodo-2-methyl-phenylamino)-N-(1H-tetrazol-5-yl)-benzamide] registered an IC50 of 237 nM. For the compound `Cc1cc(I)ccc1Nc1ccc(Br)cc1C(N)=O` [Example 38, 5-Bromo-2-(4-iodo-2-methyl-phenylamino)-benzamide], the IC50 stood at 412 nM. `Cc1cc(I)ccc1Nc1ccc(Cl)cc1C(=O)N(C)C` [Example 39, 5-Chloro-2-(4-iodo-2-methyl-phenylamino)-N,N-dimethyl-benzamide] gave a half-maximal inhibitory concentration (IC50) of 497 nM.

`CCCNC(=O)c1ccc(F)cc1Nc1ccc(I)cc1C` [Example 41, 4-Fluoro-2-(4-iodo-2-methyl-phenylamino)-N-propyl-benzamide] returned a 50% inhibitory concentration (IC50) of 872 nM.
